In paper PMC11111955, “Safety and efficacy evaluation of halicin as an effective drug for inhibiting intestinal infections” (Frontiers in Pharmacology, 2024):
Converted amounts (≈) assume the structure as drawn.

What was measured:
[1] = system: S. pneumoniae (ATCC 49619); experiment: Minimum inhibitory concentration (MIC); format: cell-based, Streptococcus pneumoniae
Experimental: The test strains were inoculated on the corresponding solid medium and incubated overnight at 37°C. A single colony was picked from the medium and inoculated into Luria Broth (LB), and then incubated overnight at 37°C with shaking at 220 rpm. The bacterial suspension was diluted to 0.5 McFarland turbidity with Mueller Hinton broth (MHB), and then dilute 100 times for later use. Halicin was added to the 96-well plate, and diluted it to concentrations of 128, 64, 32, 16, 8, 4, 2, 1, 0.5, 0.25, 0.125, and 0 μg/mL by gradient. The 96-well plate was incubated at 37°C for 16 h, followed by observing and recording the results. The MIC was determined as the concentration at which there was no visible colony growth was observed.

[2] = system: Escherichia coli (ATCC 25922); experiment: Growth kinetics curve; format: cell-based

Nc1nnc(Sc2ncc([N+](=O)[O-])s2)s1 [halicin]
MIC [1]: 0.5 µg/mL (≈ 1.91 µM)
growth in growth kinetics curve assay ([2]; 1/2 × MIC, E. coli (ATCC 25922)): significantly inhibited during the initial 16 h
growth in growth kinetics curve assay ([2]; 4 × MIC, after 20 h): still proliferated significantly
